Values joined by “and” are separate entries in the source; they are usually repeats but may differ in a detail not shown here. Identical values can stand only once. Counter-ions that a name gives are not always drawn.
How the values were obtained:
[1] = tested on: SARS-CoV-2 variant pseudoviruses (D614G, P.1., B 1.1.7, B.1.429 and B1.351), entry into 293T-ACE2-TMPRSS2 cells; format: cell-based
[2] = tested on: B.1.617.2 pseudovirus, entry into 293T-ACE2-TMPRSS2 cells; format: cell-based, SARS-CoV-2
[3] = tested on: B.1.617.1 pseudovirus, entry into 293T-ACE2-TMPRSS2 cells; format: cell-based, SARS-CoV-2; conditions: for IC50: read-out: IC50, B.1.617.1 PV transduction assay
[4] = target: SARS-CoV-2 RBD (RBD Wuhan-1) binding to ACE2 (Severe acute respiratory syndrome coronavirus 2, UniProt P0DTC2)

| SMILES | Increase of IC50 for B.1.617.2 versus B.1.617.1 [2] | Inhibition of binding of RBD Wuhan-1 to ACE2 (in words) [4] | other results |
| --- | --- | --- | --- |
| NCCS [Cysteamine] | 3–15 fold | much stronger effects | Entry of SARS-CoV-2 PV variants, cells pretreated [1]: not affected; Potency against variant PV entry (in words) [1]: less potent against the other variants tested; IC50 [3]: ~1000 µM |
| NCCCNCCS [WR-1065] | 3–15 fold | much stronger effects | IC50 ([2]; read-out: IC50, B.1.617.2 PV transduction assay): 6000 µM and 5000 to 15000 µM; IC50 [3]: ~1000 µM |
| O=S(=O)(O)CCS [Mesna, 2-mercaptoethane sulfonate, sodium salt] | – | much stronger effects | IC50, B.1.617.2 PV transduction assay [2]: did not achieve an IC50 value at the doses tested |
| N[C@@H](CS)C(=O)O [L-cysteine] | – | – | Inhibition of B.1.617.1 PV entry (in words) [3]: intermediate potency |
| CO[C@H]1O[C@H](CS)[C@H](O)[C@H](O)[C@H]1O [TDG, methyl 6-thio-6-deoxy-α-D-galactopyranoside] | 3–15 fold | – | Potency higher than compounds with similarly high pKa values (NAC, Mesna) [3]: 5 fold |
| CC(C)(S)[C@@H](N)C(=O)O [Penicillamine] | – | relatively weak inhibitory effects | – |
| O=C(O)[C@@H](S)[C@@H](S)C(=O)O [Succimer, Dimercaptosuccinic acid] | – | relatively weak inhibitory effects | – |
| CC(C)(S)C(=O)N[C@@H](CS)C(=O)O [Bucillamine] | approximately two-fold | much stronger effects | – |

From paper PMC7743076 (bioRxiv, 2021)
